This is an account of results in patent US20180002319A1, “MACROCYCLIC PICOLINAMIDE COMPOUNDS WITH FUNGICIDAL ACTIVITY” (DOW AGROSCIENCES LLC, priority 2014, published 2018).

Holding throughout (format): in vivo
The test system of assay [1] is Leptosphaeria nodorum. The experiment in a line: Wheat Glume Blotch (LEPTNO) fungicidal activity. The following applies: Parastagonospora nodorum, 24 h, 1DP (1 Day Protectant), read-out: LEPTNO Disease Control. The protocol: Technical grades of materials were dissolved in acetone, which were then mixed with nine volumes of H2O containing 110 ppm Triton X-100. The fungicide solutions were applied onto wheat seedlings using an automated booth sprayer to run-off. All sprayed plants were allowed to air dry prior to further handling. All fungicides were evaluated using the aforementioned method for their activity vs. all target diseases, unless stated otherwise. Wheat leaf blotch and brown rust activity were also evaluated using track spray applications, in which case the fungicides were formulated as EC formulations, containing 0.1% Trycol 5941 in the spray solutions. Wheat plants (variety Yuma) were grown from seed in a greenhouse in 50% mineral soil/50% soil-less Metro mix until the first leaf was fully emerged, with 7-10 seedlings per pot. These plants were inoculated with an aqueous spore suspension of Zymoseptoria tritici either prior to or after fungicide treatments. After inoculation the plants were kept in 100% relative humidity (one day in a dark dew chamber followed by two to three days in a lighted dew chamber at 20° C.) to permit spores to germinate and infect the leaf. The plants were then transferred to a greenhouse set at 20° C. for disease to develop. When disease symptoms were fully expressed on the 1st leaves of untreated plants, infection levels were assessed on a scale of 0 to 100 percent disease severity. Percent disease control was calculated using the ratio of disease severity on treated plants relative to untreated plants. Example C: Evaluation of Fungicidal Activity: Wheat Glume Blotch (Leptosphaeria nodorum; Bayer Code […]) Wheat plants (variety Yuma) were grown from seed in a greenhouse in 50% mineral soil/50% soil-less Metro mix until the first leaf was fully emerged, with 7-10 seedlings per pot. These plants were inoculated with an aqueous spore suspension of Leptosphaeria nodorum 24 hr after fungicide treatments. After inoculation the plants were kept in 100% relative humidity (one day in a dark dew chamber followed by two days in a lighted dew chamber at 20° C.) to permit spores to germinate and infect the leaf. The plants were then transferred to a greenhouse set at 20° C. for disease to develop. Fungicide formulation, application and disease assessment followed the procedures as described in the Example A.

Assay [2] concerns Uncinula necator. In words: Grape Powdery Mildew (UNCINE) fungicidal activity. The following applies: Erysiphe necator, 24 h, 1DP (1 Day Protectant), read-out: UNCINE Disease Control. The protocol: Technical grades of materials were dissolved in acetone, which were then mixed with nine volumes of H2O containing 110 ppm Triton X-100. The fungicide solutions were applied onto wheat seedlings using an automated booth sprayer to run-off. All sprayed plants were allowed to air dry prior to further handling. All fungicides were evaluated using the aforementioned method for their activity vs. all target diseases, unless stated otherwise. Wheat leaf blotch and brown rust activity were also evaluated using track spray applications, in which case the fungicides were formulated as EC formulations, containing 0.1% Trycol 5941 in the spray solutions. Wheat plants (variety Yuma) were grown from seed in a greenhouse in 50% mineral soil/50% soil-less Metro mix until the first leaf was fully emerged, with 7-10 seedlings per pot. These plants were inoculated with an aqueous spore suspension of Zymoseptoria tritici either prior to or after fungicide treatments. After inoculation the plants were kept in 100% relative humidity (one day in a dark dew chamber followed by two to three days in a lighted dew chamber at 20° C.) to permit spores to germinate and infect the leaf. The plants were then transferred to a greenhouse set at 20° C. for disease to develop. When disease symptoms were fully expressed on the 1st leaves of untreated plants, infection levels were assessed on a scale of 0 to 100 percent disease severity. Percent disease control was calculated using the ratio of disease severity on treated plants relative to untreated plants. Example E: Evaluation of Fungicidal Activity: Grape Powdery Mildew (Uncinula necator; Bayer Code […]) Grape seedlings (variety Carignane) were grown in soil-less Metro mix, with one plant per pot, and used in the test when approximately one month old. Plants were inoculated 24 hr after fungicide treatment by shaking spores from infected leaves over test plants. Plants were maintained in a greenhouse set at 20° C. until disease was fully developed. Fungicide formulation, application and disease assessment on the sprayed leaves followed the procedures as described in the Example A.

For assay [3], the system named is Cercospora beticola. The experiment in a line: Leaf Spot of Sugar Beets (CERCBE) fungicidal activity. The following applies: 24 h, 1DP (1 Day Protectant), sugar beet, read-out: CERCBE Disease Control. The protocol:
Technical grades of materials were dissolved in acetone, which were then mixed with nine volumes of H2O containing 110 ppm Triton X-100. The fungicide solutions were applied onto wheat seedlings using an automated booth sprayer to run-off. All sprayed plants were allowed to air dry prior to further handling. All fungicides were evaluated using the aforementioned method for their activity vs. all target diseases, unless stated otherwise. Wheat leaf blotch and brown rust activity were also evaluated using track spray applications, in which case the fungicides were formulated as EC formulations, containing 0.1% Trycol 5941 in the spray solutions. Wheat plants (variety Yuma) were grown from seed in a greenhouse in 50% mineral soil/50% soil-less Metro mix until the first leaf was fully emerged, with 7-10 seedlings per pot. These plants were inoculated with an aqueous spore suspension of Zymoseptoria tritici either prior to or after fungicide treatments. After inoculation the plants were kept in 100% relative humidity (one day in a dark dew chamber followed by two to three days in a lighted dew chamber at 20° C.) to permit spores to germinate and infect the leaf. The plants were then transferred to a greenhouse set at 20° C. for disease to develop. When disease symptoms were fully expressed on the 1st leaves of untreated plants, infection levels were assessed on a scale of 0 to 100 percent disease severity. Percent disease control was calculated using the ratio of disease severity on treated plants relative to untreated plants. Example G: Evaluation of Fungicidal Activity: Leaf Spot of Sugar Beets (Cercospora beticola; Bayer Code CERCBE) Sugar beet plants (variety HH88) were grown in soil-less Metro mix and trimmed regularly to maintain a uniform plant size prior to test. Plants were inoculated with a spore suspension 24 hr after fungicide treatments. Inoculated plants were kept in a dew chamber at 22° C. for 48 hr then incubated in a greenhouse set at 24° C. under a clear plastic hood with bottom ventilation until disease symptoms were fully expressed. Fungicide formulation, application and disease assessment on the sprayed leaves followed the procedures as described in the Example A.

In the case of `CCCCO[C@H]1CCOC[C@H](NC(=O)c2nccc(OC)c2OCOC(C)=O)C(=O)O[C@@H](C)[C@@H]1OCc1ccccc1` [Compound 2], the values for the pest or weed control at 100 ppm in assay [1], in assay [2] and in assay [3] were > 80%, < 80% and > 80%, respectively.
For `CCCCO[C@H]1CCOC[C@H](NC(=O)c2nccc(OC)c2OCOC(C)=O)C(=O)O[C@@H](C)[C@@H]1OC(=O)C1CC1` [Compound 5], the pest or weed control at 100 ppm was > 80% in assay [1], < 80% in assay [2] and < 80% in assay [3].
For `COc1ccnc(C(=O)N[C@H]2COCC[C@H](Cc3ccccc3)[C@@H](OCC(C)C)[C@H](C)OC2=O)c1OCOC(C)=O` [Compound 20], the pest or weed control at 100 ppm in assay [1], in assay [2] and in assay [3] was > 80% each time.
As to `COc1ccnc(C(=O)N[C@H]2COCC[C@@H](OCC(C)C)[C@@H](OCC(C)C)[C@H](C)OC2=O)c1OCOC(C)=O` [Compound 6], the pest or weed control at 100 ppm in assay [1] was > 80%; in assay [2], < 80%; in assay [3], > 80%.
As for `CCCCO[C@H]1CCOC[C@H](NC(=O)c2nccc(OC)c2OCOC(C)=O)C(=O)O[C@@H](C)[C@@H]1OC(=O)C(C)C` [Compound 3], the pest or weed control at 100 ppm was > 80% in assay [1], < 80% in assay [2] and < 80% in assay [3].
Regarding `CCCCCO[C@H]1[C@H](C)OC(=O)[C@@H](NC(=O)c2nccc(OC)c2OCOC(C)=O)CCCC[C@@H]1Oc1ccccc1` [Compound 17], the pest or weed control at 100 ppm in assay [2] and in assay [3] was > 80% each time.
Consider `CCCO[C@H]1[C@H](C)OC(=O)[C@@H](NC(=O)c2nccc(OC)c2OCOC(C)=O)CCCC[C@@H]1Oc1ccccc1` [Compound 18], for which the pest or weed control at 100 ppm in assay [2] is < 80%; in assay [3], > 80%.
As for `COc1ccnc(C(=O)N[C@H]2CCCC[C@H](Oc3ccccc3)[C@@H](Oc3ccccc3)[C@H](C)OC2=O)c1OCOC(C)=O` [Compound 19], the pest or weed control at 100 ppm in assay [2] was < 80%; in assay [3], > 80%.
In the case of `COc1ccnc(C(=O)N[C@H]2CCOC[C@H](Oc3ccccc3)[C@@H](Oc3ccccc3)[C@H](C)OC2=O)c1OCOC(C)=O` [Compound 37], the pest or weed control at 100 ppm in assay [1], in assay [2] and in assay [3] was > 80% each time.
Take `CCCCO[C@H]1CCOC[C@H](NC(=O)c2nccc(OC)c2OCOC(C)=O)C(=O)O[C@@H](C)[C@@H]1OC(=O)c1ccccc1` [Compound 4]: the pest or weed control at 100 ppm was > 80% in assay [1], < 80% in assay [2] and < 80% in assay [3].
On to `COc1ccnc(C(=O)N[C@H]2COCC[C@H](Cc3ccccc3)[C@@H](OCC(C)C)[C@H](C)OC2=O)c1OC(C)=O` [Compound 21], for which the pest or weed control at 100 ppm is > 80% in assay [1], > 80% in assay [2] and < 80% in assay [3].
